Positions count from the first letter of the chain named. Values belong to the compound of their own block, whether it stands above or below them.
Key:
[1] = target: T1, RNase L (Homo sapiens, UniProt Q05823); experiment: RNase L dimerization in vitro by Western blotting; assay type: biochemical
T1 construct: made in house; host or cells: Rosetta DE3 E. coli
T1 sequence (Q05823 1-741): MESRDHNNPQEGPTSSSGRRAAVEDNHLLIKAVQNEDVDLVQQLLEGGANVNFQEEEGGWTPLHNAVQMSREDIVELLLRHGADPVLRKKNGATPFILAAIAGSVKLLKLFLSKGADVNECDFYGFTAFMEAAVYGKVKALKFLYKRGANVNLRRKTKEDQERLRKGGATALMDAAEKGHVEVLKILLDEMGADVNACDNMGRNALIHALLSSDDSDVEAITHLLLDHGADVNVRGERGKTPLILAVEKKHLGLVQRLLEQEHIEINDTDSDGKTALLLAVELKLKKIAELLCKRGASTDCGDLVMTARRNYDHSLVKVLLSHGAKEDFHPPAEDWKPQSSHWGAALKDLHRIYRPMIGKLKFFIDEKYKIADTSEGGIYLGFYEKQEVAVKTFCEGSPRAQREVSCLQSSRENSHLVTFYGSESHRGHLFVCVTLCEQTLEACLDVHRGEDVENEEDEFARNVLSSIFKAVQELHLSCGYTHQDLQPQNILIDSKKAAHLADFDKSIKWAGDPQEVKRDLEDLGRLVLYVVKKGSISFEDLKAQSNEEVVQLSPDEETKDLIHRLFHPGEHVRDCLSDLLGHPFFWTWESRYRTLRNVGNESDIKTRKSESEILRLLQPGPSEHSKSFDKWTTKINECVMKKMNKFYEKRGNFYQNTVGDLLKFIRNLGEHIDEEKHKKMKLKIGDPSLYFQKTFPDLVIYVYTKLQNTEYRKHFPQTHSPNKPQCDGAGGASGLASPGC
Method: The position within 2 suitable for conjugation was then determined. […] Therefore, this position was derivatized and assessed for RNase L activation. […] A polyethylene glycol (PEG) linker terminated with a t-butyl ester was attached to yield 5 (FIG. 2C).

[2] = target: T1, RNase L; experiment: FRET-based in vitro RNA cleavage assay (RNase L activation); assay type: biochemical; conditions: for Relative RNA Cleavage (cleavage of fluorescently labeled RNA, RNase L activation): dose response, fluorescence normalized to 50 μM of 6
From the text: The four compounds with the highest confidence (enrichment scores>300 and copy number>25) were selected for further study. The compounds were re-synthesized without the encoding DNA tag and were studied for RNase L activation using a fluorescence-based in vitro assay, completed as previously described.^16 In brief, the assay uses an dually labeled RNA [5′ fluorescein (6-FAM) and 3′ black hole quencher (BHQ)] that harbors multiple preferred substates for RNase L (FIG. 2A).^16 In the presence of a binder that activates RNase L, the enzyme cleaves the RNA, resulting in an increased fluorescence signal. […] 2 and 3 are similar in structure, differing only by the first building block, phenylglycine in 2 and indoline in 3 (FIG. 2C).
FRET-Based In Vitro RNA Cleavage Assay. Samples were prepared as previously described.^3 Briefly, an RNA construct with multiple preferred RNase L cleavage sites^7 (5′ 6-FAM-[…]-3′ BHQ; 100 nM final concentration) was folded in 1× RNase L Assay Buffer (25 mM Tris-HCl, pH 7.4, and 100 mM NaCl) for 1 min at 95° C. followed by snap cooling on ice for 10 min. Following cooling, β-mercaptoethanol (7 mM), ATP (50 μM), and MgCl2 (1 mM) were added. Compound or DMSO (1%; vehicle) was added to the folded RNA, and the samples were incubated for 15 min. Recombinant GST-RNase L-His was then added to the solution (50 nM final concentration), affording a total volume of 33 μL. Technical triplicates (10 μL) were dispensed into 384-well low volume non-binding plate (Corning 4515), and the samples were incubated in the dark for 1 h. Fluorescence was measured using a Tecan infinite M1000 Pro plate reader using an excitation wavelength of 485 nm, emission wavelength of 520 nm, and gain of 100. Data are reported as “Relative RNA Cleavage”, normalizing fluorescence to the highest level of cleavage observed—upon addition of 50 μM of 6, which was set to 1.

[3] = tested on: lysozyme; experiment: Saturation transfer difference (STD) NMR, control protein; assay type: binding; conditions: 3 μM protein, 300 μM compound
Method: (§1) To assess further the ability of this compound to bind to RNase L, saturation transfer difference (STD) nuclear magnetic resonance (NMR)^20 and circular dichroism (CD) spectroscopic studies were conducted with 6, a compound similar in structure to 5 and a potential intermediate in the synthesis of a resulting RiboTAC (FIGS. 2C & 6B-6C).
(§2) Saturation Transfer Difference (STD) NMR. NMR spectra were acquired at 25° C. on a 600 MHz Bruker Avance III spectrometer equipped with a cryoprobe. Samples were prepared by drying 6 (120 nmol) to a solid and resuspending in deuterated DMSO (4 μL). […] The STD spectra were recorded as an interleaved experiment (n=2) with one experiment including a saturating pulse at −40 ppm for 2 s and one at 0.8 ppm for 2 s. Both spectra were processed with identical phasing before calculating the difference spectra (A) using TopSpin 4.0.6 (Bruker).

[4] = target: T2, RNase L (Homo sapiens, UniProt Q05823, H672N); experiment: Saturation transfer difference (STD) NMR; assay type: binding; conditions: 3 μM protein, 300 μM compound
T2 construct: GST (N, cleaved yes); made in house; host or cells: BL21 AI Escherichia coli
T2 sequence (Q05823 1-741 H672N): T1 sequence (Q05823 1-741) with H672N
Method: as §1, §2

[5] = target: T2, RNase L; experiment: Circular dichroism (CD) spectroscopy; assay type: binding; conditions: 10 μM inactive RNase L, 75 μM compound
Method: as §1
Circular Dichroism (CD) Spectroscopy. […] CD wavelength scans were completed from 190 to 260 nm. […] The spectra were plotted and compared in GraphPad Prism.

[6] = target: T3, pre-miR-21 mutant and RNase L (Homo sapiens, UniProt Q05823, H672N); experiment: Co-immunoprecipitation of mutant pre-miR-21 and RNase L; assay type: binding; conditions: base paired mutant pre-miR-21, inactive RNase L
T3 construct: GST (N, cleaved yes); made in house; host or cells: BL21 AI Escherichia coli
T3 sequence (Q05823 1-741 H672N): T1 sequence (Q05823 1-741) with H672N
Method: (§3) Co-Immunoprecipitation of pre-miR-2I and RNase L. Approximately 20,000 cpm of 32P 5′-end labeled WT or mutant pre-miR-21 or an RNA construct where the A-bulge was mutated to a base pair (5′-[…] UGGGCUGU-3′) was folded in 1× RNase L Assay Buffer for 1 min at 95° C. and cooled on ice for 10 min. Following cooling, β-mercaptoethanol (7 mM), ATP (50 μM), and MgCl2 (1 mM) were added to the solution. The solution was aliquoted, and compounds were incubated in solution for 15 min (1% DMSO final concentration). […] Beads were then washed with 1×PBS supplemented with 0.02% (v/v) Tween-20. Radioactive signal in the supernatant and associated with the beads was quantified by a Beckman Coulter LS6500 Liquid Scintillation Counter. Relative RNA enrichment was calculated by comparing the radioactive signal associated with beads compared to the total radioactive signal from the beads plus the supernatant.

[7] = target: T4, pre-miR-21 and RNase L (Homo sapiens, UniProt Q05823, H672N); experiment: Co-immunoprecipitation of pre-miR-21 and RNase L; assay type: binding; conditions: WT 32P-pre-miR-21, inactive RNase L
T4 construct: GST (N, cleaved yes); made in house; host or cells: BL21 AI Escherichia coli
T4 sequence (Q05823 1-741 H672N): T1 sequence (Q05823 1-741) with H672N
Method: as §3

[8] = tested on: phosphorylation of extracellular signal-regulated kinase (ERK); experiment: Western blot of pERK versus ERK (RTK signaling); assay type: cell-based; conditions: Homo sapiens; CRISPR-Control sgRNA MDA-MB-231 cells; read-out: IC50 for inhibition of phosphorylation of ERK
Method: Quantification of Protein Levels by Western Blotting. MDA-MB-231 cells were treated as described in “Cell Culture.” After treatment, the medium was removed, and the cells were washed with 1× Dulbecco's phosphate-buffered saline (DPBS). Total protein was extracted using Mammalian Protein Extraction Reagent (M-PER, Thermo Scientific) according to the manufacturer's protocol. Protein concentration was measured using a Pierce Micro BCA Protein Assay kit (Fisher Scientific). Approximately 20 μg total protein was loaded onto a Tris-glycine gel with a 5% polyacrylamide stacking layer and a 10% polyacrylamide resolving layer. The gel was run at 140 V for ˜1.5 h in 1× Running Buffer (25 mM Tris base, pH 8.3, 190 mM glycine, and 0.1% (w/v) SDS). After electrophoresis, the protein was transferred to a PVDF membrane using 1× Transfer Buffer (25 mM Tris base, pH 8.3, 190 mM glycine, and 20% (v/v) methanol). The membrane was then washed with 1×TBST (Tris-buffered saline with 0.1% (v/v) Tween 20) and blocked in a solution of 5% (w/v) milk in 1×TBST for 30 min with shaking at room temperature. The membrane was then incubated overnight at 4° C. in a solution of primary antibody diluted in 1×TBST containing 5% (w/v) milk. […]

Compound: CNC(=O)[C@H](c1ccccc1)N(C)Cc1ccc(-c2cccc(-c3sccc3N)c2)cc1 [Compound 4, (S)-2-(((3′-(3-aminothiophen-2-yl)-[1,1′-biphenyl]-4-yl)methyl)-(methyl)amino)-N-methyl-2-phenylacetamide]
Relative RNA Cleavage (cleavage of fluorescently labeled RNA, RNase L activation) [2]: enhanced RNA cleavage compared to 2

Compound: CNC(=O)[C@H](c1ccccc1)N(C)Cc1ccc(-c2cccc(-c3sccc3NC(=O)CCOCCOCCOCCC(=O)OC(C)(C)C)c2)cc1 [Compound 5, tert-butyl (S)-3-(2-(2-(3-((2-(4′-((methyl(2-(methylamino)-2-oxo-1-phenylethyl)-amino)methyl)-[1,1′-biphenyl]-3-yl)thiophen-3-yl)amino)-3-oxopropoxy)ethoxy)-ethoxy) propanoate]
Relative RNA Cleavage (cleavage of fluorescently labeled RNA, RNase L activation) [2]: retained RNase L activation activity

Compound: CN1CCN(c2ccc3nc(-c4c(N)c5c(F)cccc5[nH]c4=O)[nH]c3c2)CC1 [Dovitinib, reference compound]
IC50 [8]: ~1000 nM

Second part, led by results:

RNase L dimerization [1]: induces RNase L dimerization
Compound: CCCCCCCCc1ccsc1-c1cccc(-c2ccc(CN(C)[C@H](C(=O)NC)c3ccccc3)cc2)c1 [Compound 2, (S)—N-methyl-2-(methyl((3′-(3-octylthiophen-2-yl)-[1,1′-biphenyl]-4-yl)methyl)amino)-2-phenylacetamide]
Relative RNA Cleavage (cleavage of fluorescently labeled RNA, RNase L activation) [2]: induced dose-dependent RNA cleavage to a greater extent than 1

CD signal of RNase L upon addition of compound [5]: increase in signal intensity at 220 nm
co-immunoprecipitation of RNA with RNase L [6]: Neither RNA was pulled down
co-immunoprecipitation of RNA with RNase L [7]: Neither RNA was pulled down
Relative RNA Cleavage ([2]; 50 μM, highest level of cleavage observed, set to 1): 1
Compound: CNC(=O)[C@H](c1ccccc1)N(C)Cc1ccc(-c2cccc(-c3sccc3NC(=O)CCOCCOCCOCCC(=O)O)c2)cc1 [Compound 6, (S)-3-(2-(2-(3-((2-(4′-((methyl(2-(methylamino)-2-oxo-1-phenylethyl)amino)methyl)-[1,1′-biphenyl]-3-yl)thiophen-3-yl)amino)-3-oxopropoxy)ethoxy)ethoxy)propanoic acid]
STD-NMR transfer of magnetization [3]: no transfer was observed
STD-NMR transfer of magnetization [4]: transfer of magnetization from the compound to RNase L
